Reference: patent publication US20220169628A1 (University of Florida Research Foundation, Incorporated, priority 2019, published 2022)
Read-outs that look alike come from different tables or passages of the source.

How the values were obtained:
MOLT-4 cells = assay: Cell viability assay, MTS, 48 h, MOLT-4; format: cell-based; conditions: 48 hours, read-out: IC50 (48 hours) MOLT-4
Procedure: (§1) Acute lymphoblastic leukemia cells (MOLT-4 and RS4; 11) or small cell lung cancer (NCI-H146 or simply H146) were incubated with increasing concentrations of Bcl-xL degraders for 48 h. Cell viability was measured by tetrazolium-based MTS assay.

RS4;11 cells = assay: Cell viability assay, MTS, 48 h, RS4;11; format: cell-based; conditions: 48 hours, read-out: IC50 (48 hours) RS4;11
Procedure: as §1

Row | Compound | IC50 (MOLT-4 cells; Homo sapiens, MOLT-4, 48 h) | IC50 (RS4;11 cells; Homo sapiens, RS4-11, 48 h) | IC50 (MOLT-4 cells) | IC50 (RS4;11 cells)
1 | (2S,4R)-1-((S)-2-(8-(4-(4-chlorophenyl)-5-((4-(4-(((4-(((R)-4-morpholino-1-(phenylthio)butan-2-yl)amino)-3-((trifluoromethyl)sulfonyl)phenyl)sulfonyl)carbamoyl)phenyl)piperazin-1-yl)methyl)-3,6-dihydropyridin-1(2H)-yl)-8-oxooctanamido)-3,3-dimethylbutanoyl)-4-hydroxy-N—((S)-1-(4-(4-methylthiazol-5-yl)phenyl)ethyl)pyrrolidine-2-carboxamide [Example 3] |  |  | 150 to 500 nM | 50 to 150 nM
2 | Cc1ncsc1-c1ccc([C@H](C)NC(=O)[C@@H]2C[C@@H](O)CN2C(=O)[C@@H](NC(=O)CCCCCN2CCN(CC3(C)CCC(c4ccc(Cl)cc4)=C(CN4CCN(c5ccc(C(=O)NS(=O)(=O)c6ccc(N[C@H](CCN7CCOCC7)CSc7ccccc7)c(S(=O)(=O)C(F)(F)F)c6)cc5)CC4)C3)CC2)C(C)(C)C)cc1 (stereo partly drawn) [compound 69, (2S,4R)-1-((2S)-2-(6-(4-((4′-chloro-4-methyl-6-((4-(4-(((4-(((R)-4-morpholino-1-(phenylthio)butan-2-yl)amino)-3-((trifluoromethyl)sulfonyl)phenyl)sulfonyl)carbamoyl)phenyl)piperazin-1-yl)methyl)-2,3,4,5-tetrahydro-[1,1′-biphenyl]-4-yl)methyl)piperazin-1-yl)hexanamido)-3,3-dimethylbutanoyl)-4-hydroxy-N—((S)-1-(4-(4-methylthiazol-5-yl)phenyl)ethyl)pyrrolidine-2-carboxamide] |  |  | 50 to 150 nM | 50 to 150 nM
3 | Cc1ncsc1-c1ccc([C@H](C)NC(=O)[C@@H]2C[C@@H](O)CN2C(=O)[C@@H](NC(=O)CCCCCC(=O)NCCN(C)CC2(C)CCC(c3ccc(Cl)cc3)=C(CN3CCN(c4ccc(C(=O)NS(=O)(=O)c5ccc(N[C@H](CCN6CCOCC6)CSc6ccccc6)c(S(=O)(=O)C(F)(F)F)c5)cc4)CC3)C2)C(C)(C)C)cc1 (stereo partly shown) [compound 60] | 150 to 500 nM | 150 to 500 nM |  | 
4 | Cc1ncsc1-c1ccc([C@H](C)NC(=O)[C@@H]2C[C@@H](O)CN2C(=O)[C@@H](NC(=O)CCC(=O)N2CCC(c3ccc(Cl)cc3)=C(CN3CCN(c4ccc(C(=O)NS(=O)(=O)c5ccc(N[C@H](CCN6CCOCC6)CSc6ccccc6)c(S(=O)(=O)C(F)(F)F)c5)cc4)CC3)C2)C(C)(C)C)cc1 [compound 79, (2S,4R)-1-((S)-2-(4-(4-(4-chlorophenyl)-5-((4-(4-(((4-(((R)-4-morpholino-1-(phenylthio)butan-2-yl)amino)-3-((trifluoromethyl)sulfonyl)phenyl)sulfonyl)carbamoyl)phenyl)piperazin-1-yl)methyl)-3,6-dihydropyridin-1(2H)-yl)-4-oxobutanamido)-3,3-dimethylbutanoyl)-4-hydroxy-N—((S)-1-(4-(4-methylthiazol-5-yl)phenyl)ethyl)pyrrolidine-2-carboxamide] | > 500 nM | > 500 nM |  | 
5 | Cc1ncsc1-c1ccc([C@H](C)NC(=O)[C@@H]2C[C@@H](O)CN2C(=O)[C@@H](NC(=O)CCCCC(=O)N2CCN(CCN(C)CC3(C)CCC(c4ccc(Cl)cc4)=C(CN4CCN(c5ccc(C(=O)NS(=O)(=O)c6ccc(N[C@H](CCN7CCOCC7)CSc7ccccc7)c(S(=O)(=O)C(F)(F)F)c6)cc5)CC4)C3)CC2)C(C)(C)C)cc1 (stereo partly shown) [compound 58] | 50 to 150 nM | 50 to 150 nM |  | 
6 | Cc1ncsc1-c1ccc([C@H](C)NC(=O)[C@@H]2C[C@@H](O)CN2C(=O)[C@@H](NC(=O)C[C@H]2CC[C@H](CC(=O)N3CCC4(CCN(CC5(C)CCC(c6ccc(Cl)cc6)=C(CN6CCN(c7ccc(C(=O)NS(=O)(=O)c8ccc(N[C@H](CCN9CCOCC9)CSc9ccccc9)c(S(=O)(=O)C(F)(F)F)c8)cc7)CC6)C5)CC4)CC3)CC2)C(C)(C)C)cc1 (relative stereo) [degrader #39] |  |  | 50 to 150 nM | < 50 nM
7 | CC1(CNC(=O)COCCNc2cccc3c2C(=O)N(C2CCC(=O)NC2=O)C3=O)CCC(c2ccc(Cl)cc2)=C(CN2CCN(c3ccc(C(=O)NS(=O)(=O)c4ccc(N[C@H](CCN5CCOCC5)CSc5ccccc5)c(S(=O)(=O)C(F)(F)F)c4)cc3)CC2)C1 (stereo partly drawn) [compound 76, 4-(4-((4′-chloro-4-((2-(2-((2-(2,6-dioxopiperidin-3-yl)-1,3-dioxoisoindolin-4-yl)amino)ethoxy)acetamido)methyl)-4-methyl-3,4,5,6-tetrahydro-[1,1′-biphenyl]-2-yl)methyl)piperazin-1-yl)-N-((4-(((R)-4-morpholino-1-(phenylthio)butan-2-yl)amino)-3-((trifluoromethyl)sulfonyl)phenyl)sulfonyl)benzamide] | 50 to 150 nM | 50 to 150 nM |  | 
8 | Cc1ncsc1-c1ccc([C@H](C)NC(=O)[C@@H]2C[C@@H](O)CN2C(=O)[C@@H](NC(=O)CCCCCCCC(=O)N[C@H]2CCCN(CC3(C)CCC(c4ccc(Cl)cc4)=C(CN4CCN(c5ccc(C(=O)NS(=O)(=O)c6ccc(N[C@H](CCN7CCOCC7)CSc7ccccc7)c(S(=O)(=O)C(F)(F)F)c6)cc5)CC4)C3)C2)C(C)(C)C)cc1 (stereo partly drawn) [degrader #48, N1-((3S)-1-((4′-chloro-4-methyl-6-((4-(4-(((4-(((R)-4-morpholino-1-(phenylthio)butan-2-yl)amino)-3-((trifluoromethyl)sulfonyl)phenyl)sulfonyl)carbamoyl)phenyl)piperazin-1-yl)methyl)-2,3,4,5-tetrahydro-[1,1′-biphenyl]-4-yl)methyl)piperidin-3-yl)-N9-((S)-1-((2S,4R)-4-hydroxy-2-(((S)-1-(4-(4-methylthiazol-5-yl)phenyl)ethyl)carbamoyl)pyrrolidin-1-yl)-3,3-dimethyl-1-oxobutan-2-yl)nonanediamide] | 50 to 150 nM | < 50 nM |  | 
9 | Cc1ncsc1-c1ccc([C@H](C)NC(=O)[C@@H]2C[C@@H](O)CN2C(=O)[C@@H](NC(=O)CCCC(=O)N2CCN(CCN(C)CC3(C)CCC(c4ccc(Cl)cc4)=C(CN4CCN(c5ccc(C(=O)NS(=O)(=O)c6ccc(N[C@H](CCN7CCOCC7)CSc7ccccc7)c(S(=O)(=O)C(F)(F)F)c6)cc5)CC4)C3)CC2)C(C)(C)C)cc1 (stereo partly shown) [compound 57] | 150 to 500 nM | 150 to 500 nM |  | 

Second part, led by results:

Row | IC50 (MOLT-4 cells; Homo sapiens, MOLT-4, 48 h) | IC50 (RS4;11 cells; Homo sapiens, RS4-11, 48 h) | Compound | IC50 (MOLT-4 cells) | IC50 (RS4;11 cells)
10 | < 50 nM | < 50 nM | Cc1ncsc1-c1ccc([C@H](C)NC(=O)[C@@H]2C[C@@H](O)CN2C(=O)[C@@H](NC(=O)CCCCCC(=O)N2CCN(CCN(C)CC3(C)CCC(c4ccc(Cl)cc4)=C(CN4CCN(c5ccc(C(=O)NS(=O)(=O)c6ccc(N[C@H](CCN7CCOCC7)CSc7ccccc7)c(S(=O)(=O)C(F)(F)F)c6)cc5)CC4)C3)CC2)C(C)(C)C)cc1 (stereo partly shown) [compound 59] |  | 
11 | < 50 nM | < 50 nM | CC1(CNC(=O)CCCCCCNc2cccc3c2C(=O)N(C2CCC(=O)NC2=O)C3=O)CCC(c2ccc(Cl)cc2)=C(CN2CCN(c3ccc(C(=O)NS(=O)(=O)c4ccc(N[C@H](CCN5CCOCC5)CSc5ccccc5)c(S(=O)(=O)C(F)(F)F)c4)cc3)CC2)C1 (stereo partly drawn) [compound 72, 4-(4-((4′-chloro-4-((7-((2-(2,6-dioxopiperidin-3-yl)-1,3-dioxoisoindolin-4-yl)amino)heptanamido)methyl)-4-methyl-3,4,5,6-tetrahydro-[1,1′-biphenyl]-2-yl)methyl)piperazin-1-yl)-N-((4-(((R)-4-morpholino-1-(phenylthio)butan-2-yl)amino)-3-((trifluoromethyl)sulfonyl)phenyl)sulfonyl)benzamide] |  | 
12 | < 50 nM | < 50 nM | Cc1ncsc1-c1ccc([C@H](C)NC(=O)[C@@H]2C[C@@H](O)CN2C(=O)[C@@H](NC(=O)CCCCCN2CCN(CC3(C)CCC(c4ccc(Cl)cc4)=C(CN4CCN(c5ccc(C(=O)NS(=O)(=O)c6ccc(N[C@H](CCN7CCOCC7)CSc7ccccc7)c(S(=O)(=O)C(F)(F)F)c6)cc5)CC4)C3)CC2)C(C)(C)C)cc1 (stereo partly drawn) [Compound 55, N^1-((4′-chloro-4-methyl-6-((4-(4-(((4-(((R)-4-morpholino-1-(phenylthio)butan-2-yl)amino)-3-((trifluoromethyl)sulfonyl)phenyl)sulfonyl)carbamoyl)phenyl)piperazin-1-yl)methyl)-2,3,4,5-tetrahydro-[1,1′-biphenyl]-4-yl)methyl)-N^2—((S)-1-((2S,4R)-4-hydroxy-2-(((S)-1-(4-(4-methylthiazol-5-yl)phenyl)ethyl)carbamoyl)pyrrolidin-1-yl)-3,3-dimethyl-1-oxobutan-2-yl)dodecanediamide] |  | 
13 | < 50 nM | < 50 nM | CC1(CNC(=O)CCCCCNc2cccc3c2C(=O)N(C2CCC(=O)NC2=O)C3=O)CCC(c2ccc(Cl)cc2)=C(CN2CCN(c3ccc(C(=O)NS(=O)(=O)c4ccc(N[C@H](CCN5CCOCC5)CSc5ccccc5)c(S(=O)(=O)C(F)(F)F)c4)cc3)CC2)C1 (stereo partly drawn) [compound 71, 4-(4-((4′-chloro-4-((6-((2-(2,6-dioxopiperidin-3-yl)-1,3-dioxoisoindolin-4-yl)amino)hexanamido)methyl)-4-methyl-3,4,5,6-tetrahydro-[1,1′-biphenyl]-2-yl)methyl)piperazin-1-yl)-N-((4-(((R)-4-morpholino-1-(phenylthio)butan-2-yl)amino)-3-((trifluoromethyl)sulfonyl)phenyl)sulfonyl)benzamide] |  | 
14 | < 50 nM | < 50 nM | Cc1ncsc1-c1ccc([C@H](C)NC(=O)[C@@H]2C[C@@H](O)CN2C(=O)[C@@H](NC(=O)CCCCCCC(=O)N2CCN(CC3(C)CCC(c4ccc(Cl)cc4)=C(CN4CCN(c5ccc(C(=O)NS(=O)(=O)c6ccc(N[C@H](CCN7CCOCC7)CSc7ccccc7)c(S(=O)(=O)C(F)(F)F)c6)cc5)CC4)C3)CC2)C(C)(C)C)cc1 (stereo partly drawn) [degrader #17, (2S,4R)-1-((2S)-2-(8-(4-((4′-chloro-4-methyl-6-((4-(4-(((4-(((R)-4-morpholino-1-(phenylthio)butan-2-yl)amino)-3-((trifluoromethyl)sulfonyl)phenyl)sulfonyl)carbamoyl)phenyl)piperazin-1-yl)methyl)-2,3,4,5-tetrahydro-[1,1′-biphenyl]-4-yl)methyl)piperazin-1-yl)-8-oxooctanamido)-3,3-dimethylbutanoyl)-4-hydroxy-N—((S)-1-(4-(4-methylthiazol-5-yl)phenyl)ethyl)pyrrolidine-2-carboxamide] |  | 
